Experimental data: patent publication US5204352A, “Compounds exhibiting anti-parasitic activity and a method for their use” (The United States of America as represented by the …, priority 1987, dated 1993)

How the values were obtained:
in vivo = assay: in vivo; set-up: species or system mice; settings: mouse, sc
Description: The preferred mode of administration of these compounds is subcutaneously. With subcutaneous administration, however, many of the compounds show lethal toxicity at very high dosage amounts. Thus, it is also possible to administer these compounds peritoneally. Compounds which are subcutaneously active are generally peritoneally active at higher doses. Further, none of the compounds administered peritoneally have shown lethal toxicity at dosages up to 400 mg/kg.
(§1) The compounds of the present invention were evaluated biologically in vivo with groups of 5 mice at various dose levels. Unless otherwise indicated, the data are for subcutaneous administration. Dose levels marked with an asterisk are for peritoneal administration in a HEC+T medium. In addition, Table 2 present results of peritoneal administration with substituted quanylhydrazones. The biological evaluation was done according to a standard protocol based on the method described by Rane et al., Amer. J. Trop. Med Hyg. 25:395 (1976).

Trypanosoma rhodesiense [1] = assay: In vivo trypanocidal activity in infected mice (protocol based on Rane et al.); set-up: Activity at dosage, value in parentheses (increase in survival): unit not given here; settings: for Activity at dosage (C = Cures) / Activity at dosage, value in parentheses (increase in survival): peritoneal (Table 2)
Description: as §1, with “(1976). […]” for “(1976).”

Trypanosoma rhodesiense [2] = settings: previously known bis-amidine and bis-guanylhydrazones; cited from earlier work
[3] = 13.3* mg/kg, peritoneal in HEC+T medium (Table I)
[4] = 26* mg/kg, peritoneal in HEC+T medium (Table I)
[5] = 106* mg/kg, peritoneal in HEC+T medium (Table I)
[6] = 424* mg/kg, peritoneal in HEC+T medium (Table I)

Cc1ccc2n(c1)cc(-c1ccc(C=NNC3=NCCCN3)cc1)[n+]2C [2-(3,4,5,6-tetrahydropyrimidyI)hydrazone of 1,6-dimethyl-2-(4'-formylphenyl)imidazo[1,2-a]-pyridinium bromide]
MTD (in vivo): ~100 mg/kg

C[n+]1c(-c2ccc(C=NNC3=NCCN3)cc2)cn2ccccc21 [BK50311]
Increase in survival (Trypanosoma rhodesiense [1]; 0.42 mg/kg, subcutaneous): 6.6 days
Trypanocidal activity, cures (Trypanosoma rhodesiense [1]; 0.42 mg/kg, subcutaneous): 2/5
Activity at dosage (C = Cures) (Trypanosoma rhodesiense [1]; 0.8 mg/kg): INAC
Increase in survival (Trypanosoma rhodesiense [1]; 0.83 mg/kg, subcutaneous): 1.5 days
Trypanocidal activity, cures (Trypanosoma rhodesiense [1]; 0.83 mg/kg, subcutaneous): 8/10
Increase in survival (Trypanosoma rhodesiense [1]; 1.66 mg/kg, subcutaneous): 22.0 days
Trypanocidal activity, cures (Trypanosoma rhodesiense [1]; 1.66 mg/kg, subcutaneous): 9/10
Activity at dosage, value in parentheses (increase in survival) (Trypanosoma rhodesiense [1]; 1.7 mg/kg): 1.0
Activity at dosage, value in parentheses (increase in survival) (Trypanosoma rhodesiense [1]; 3.3 mg/kg): 1.6
Trypanocidal activity, cures (Trypanosoma rhodesiense [1]; 3.3 mg/kg, subcutaneous): 5/5
Increase in survival (Trypanosoma rhodesiense [1]; 6.6 mg/kg, subcutaneous): 10.0 days
Trypanocidal activity, cures (Trypanosoma rhodesiense [1]; 6.6 mg/kg, subcutaneous): 3/5
Activity at dosage, value in parentheses (increase in survival) (Trypanosoma rhodesiense [1]; 6.7 mg/kg): 7.7
Activity at dosage, value in parentheses (increase in survival) (Trypanosoma rhodesiense [1]; 13 mg/kg): 9.0
Trypanocidal activity, cures (Trypanosoma rhodesiense [1]; 13.3 mg/kg, subcutaneous): 10/10
Activity at dosage, value in parentheses (increase in survival) (Trypanosoma rhodesiense [1]; 26 mg/kg): 13.5
Increase in survival (Trypanosoma rhodesiense [1]; [3]): 9.0 days
Trypanocidal activity, cures (Trypanosoma rhodesiense [1]; [3]): 9/10
Increase in survival (Trypanosoma rhodesiense [1]; [4]): 13.5 days
Trypanocidal activity, cures (Trypanosoma rhodesiense [1]; [4]): 13/15
Trypanocidal activity, cures (Trypanosoma rhodesiense [1]; 53* mg/kg, peritoneal in HEC+T medium (Table I)): 5/5
Trypanocidal activity, cures (Trypanosoma rhodesiense [1]; [5]): 10/10
Trypanocidal activity, cures (Trypanosoma rhodesiense [1]; 212* mg/kg, peritoneal in HEC+T medium (Table I)): 5/5
Trypanocidal activity, cures (Trypanosoma rhodesiense [1]; [6]): 0/10

C[n+]1c(-c2ccc(C=NNC(=N)N3CCOCC3)cc2)cn2ccccc21 [BK51890]
Activity at dosage, value in parentheses (increase in survival) (Trypanosoma rhodesiense [1]; 0.8 mg/kg): 1.7
Activity at dosage, value in parentheses (increase in survival) (Trypanosoma rhodesiense [1]; 1.7 mg/kg): 10.9
Activity at dosage, value in parentheses (increase in survival) (Trypanosoma rhodesiense [1]; 26 mg/kg): 5.9
Increase in survival (Trypanosoma rhodesiense [1]; 1.66* mg/kg, peritoneal in HEC+T medium (Table I)): 10.9 days
Trypanocidal activity, cures (Trypanosoma rhodesiense [1]; 3.3* mg/kg, peritoneal in HEC+T medium (Table I)): 5/5
Trypanocidal activity, cures (Trypanosoma rhodesiense [1]; 6.6* mg/kg, peritoneal in HEC+T medium (Table I)): 5/5
Trypanocidal activity, cures (Trypanosoma rhodesiense [1]; 13* mg/kg, peritoneal in HEC+T medium (Table I)): 5/5
Trypanocidal activity, cures (Trypanosoma rhodesiense [1]; [4]): 9/10
Trypanocidal activity, cures (Trypanosoma rhodesiense [1]; [5]): 5/5
Trypanocidal activity, cures (Trypanosoma rhodesiense [1]; [6]): 5/5

C[n+]1c(-c2ccc(C=NNC(=N)N)cc2)c(Br)n2ccccc21 [BK51907]
Activity at dosage (C = Cures) (Trypanosoma rhodesiense [1]; 0.8 mg/kg): INAC
Activity at dosage (C = Cures) (Trypanosoma rhodesiense [1]; 1.7 mg/kg): INAC
Activity at dosage, value in parentheses (increase in survival) (Trypanosoma rhodesiense [1]; 3.3 mg/kg): 1.2
Activity at dosage, value in parentheses (increase in survival) (Trypanosoma rhodesiense [1]; 6.7 mg/kg): 3.8
Activity at dosage, value in parentheses (increase in survival) (Trypanosoma rhodesiense [1]; 13 mg/kg): 7.0
Activity at dosage, value in parentheses (increase in survival) (Trypanosoma rhodesiense [1]; 26 mg/kg): 10.0
Activity at dosage, value in parentheses (increase in survival) (Trypanosoma rhodesiense [1]; 424 mg/kg): 2.0

Cc1ccc2n(c1)cc(-c1ccc(C=NNc3nc[nH]n3)cc1)[n+]2C [BK51961]
Activity at dosage (C = Cures) (Trypanosoma rhodesiense [1]; 13 mg/kg): INAC
Activity at dosage (C = Cures) (Trypanosoma rhodesiense [1]; 26 mg/kg): INAC
Activity at dosage (C = Cures) (Trypanosoma rhodesiense [1]; 53 mg/kg): INAC
Activity at dosage, value in parentheses (increase in survival) (Trypanosoma rhodesiense [1]; 106 mg/kg): 5.5
Activity at dosage, value in parentheses (increase in survival) (Trypanosoma rhodesiense [1]; 212 mg/kg): 6.3
Activity at dosage, value in parentheses (increase in survival) (Trypanosoma rhodesiense [1]; 424 mg/kg): 6.0

C[n+]1c(-c2ccc(C=NNC3=NCCN3)cc2)cn2ccsc21 [BK62620]
Increase in survival (Trypanosoma rhodesiense [1]; 13.3 mg/kg, subcutaneous): 28.0 days
Trypanocidal activity, cures (Trypanosoma rhodesiense [1]; 13.3 mg/kg, subcutaneous): 9/10

C[n+]1c(COc2ccc(C(=N)N)cc2)cn2ccccc21 [BK65330]
Increase in survival (Trypanosoma rhodesiense [1]; 13.3 mg/kg, subcutaneous): 12 days
Trypanocidal activity, cures (Trypanosoma rhodesiense [1]; 13.3 mg/kg, subcutaneous): 3/5

C[n+]1c(COc2ccc(C=NNC(=N)NO)cc2)cn2ccccc21 [BK75087]
Increase in survival (Trypanosoma rhodesiense [1]; 0.2 mg/kg, subcutaneous): 5.9 days
Trypanocidal activity, cures (Trypanosoma rhodesiense [1]; 0.2 mg/kg, subcutaneous): 2/5
Increase in survival (Trypanosoma rhodesiense [1]; 0.4 mg/kg, subcutaneous): 10 days
Trypanocidal activity, cures (Trypanosoma rhodesiense [1]; 0.4 mg/kg, subcutaneous): 3/5
Trypanocidal activity, cures (Trypanosoma rhodesiense [1]; 0.8 mg/kg, subcutaneous): 10/10
Trypanocidal activity, cures (Trypanosoma rhodesiense [1]; 6.6 mg/kg, subcutaneous): 5/5

CCN=C(NCC)NN=Cc1ccc(OCc2cn3ccccc3[n+]2C)cc1 [BL03933]
Increase in survival (Trypanosoma rhodesiense [1]; 1.6 mg/kg, subcutaneous): 6.3 days
Trypanocidal activity, cures (Trypanosoma rhodesiense [1]; 1.6 mg/kg, subcutaneous): 7/10
Trypanocidal activity, cures (Trypanosoma rhodesiense [1]; 3.3 mg/kg, subcutaneous): 5/5
Trypanocidal activity, cures (Trypanosoma rhodesiense [1]; 6.6 mg/kg, subcutaneous): 5/5

C[n+]1ccccc1COc1ccc(C=NNC2=NCCCN2)cc1 [BL07646]
Increase in survival (Trypanosoma rhodesiense [1]; 1.6 mg/kg, subcutaneous): 3.9 days
Trypanocidal activity, cures (Trypanosoma rhodesiense [1]; 1.6 mg/kg, subcutaneous): 1/10
Increase in survival (Trypanosoma rhodesiense [1]; 6.6 mg/kg, subcutaneous): 9.9 days
Trypanocidal activity, cures (Trypanosoma rhodesiense [1]; 6.6 mg/kg, subcutaneous): 3/5
Increase in survival (Trypanosoma rhodesiense [1]; 13 mg/kg, subcutaneous): 4.0 days
Trypanocidal activity, cures (Trypanosoma rhodesiense [1]; 13 mg/kg, subcutaneous): 9/10

C[n+]1c(-c2ccc(C=CC=NNC(=N)N)cc2)cn2ccccc21 [BL07815]
Trypanocidal activity, cures (Trypanosoma rhodesiense [1]; 1.6 mg/kg, subcutaneous): 0/10
Trypanocidal activity, cures (Trypanosoma rhodesiense [1]; 3.3 mg/kg, subcutaneous): 5/5
Trypanocidal activity, cures (Trypanosoma rhodesiense [1]; 6.6 mg/kg, subcutaneous): 5/5
Trypanocidal activity, cures (Trypanosoma rhodesiense [1]; 13 mg/kg, subcutaneous): 10/10
Trypanocidal activity, cures (Trypanosoma rhodesiense [1]; 26 mg/kg, subcutaneous): 15/15
Trypanocidal activity, cures (Trypanosoma rhodesiense [1]; 53 mg/kg, subcutaneous): 5/5
Trypanocidal activity, cures (Trypanosoma rhodesiense [1]; 106 mg/kg, subcutaneous): 10/10

C[n+]1c(-c2ccc(C=CC=NNC3=NCCCN3)cc2)cn2ccccc21 [BL07824]
Trypanocidal activity, cures (Trypanosoma rhodesiense [1]; 3.3 mg/kg, subcutaneous): 5/5
Trypanocidal activity, cures (Trypanosoma rhodesiense [1]; 6.6 mg/kg, subcutaneous): 5/5
Trypanocidal activity, cures (Trypanosoma rhodesiense [1]; 13 mg/kg, subcutaneous): 5/5

C[n+]1c(C=Cc2ccc(C=NNC(=N)N)cc2)cn2ccccc21 [BL09462]
Increase in survival (Trypanosoma rhodesiense [1]; 0.1 mg/kg, subcutaneous): 5.2 days
Trypanocidal activity, cures (Trypanosoma rhodesiense [1]; 0.1 mg/kg, subcutaneous): 6/10
Trypanocidal activity, cures (Trypanosoma rhodesiense [1]; 0.2 mg/kg, subcutaneous): 5/5
Trypanocidal activity, cures (Trypanosoma rhodesiense [1]; 0.8 mg/kg, subcutaneous): 10/10

Cn1c(COc2ccc(C=NNC3=NCCN3)cc2)[n+](C)c2ccccc21 [BL10018]
Increase in survival (Trypanosoma rhodesiense [1]; 0.4 mg/kg, subcutaneous): 6.8 days
Trypanocidal activity, cures (Trypanosoma rhodesiense [1]; 0.4 mg/kg, subcutaneous): 3/5
Trypanocidal activity, cures (Trypanosoma rhodesiense [1]; 1.6 mg/kg, subcutaneous): 10/10
Trypanocidal activity, cures (Trypanosoma rhodesiense [1]; 6.6 mg/kg, subcutaneous): 5/5

C[n+]1cccc(COc2ccc(C=NNC(=N)N3CCCC3)cc2)c1 [BL10027]
Increase in survival (Trypanosoma rhodesiense [1]; 0.8 mg/kg, subcutaneous): 5.2 days
Trypanocidal activity, cures (Trypanosoma rhodesiense [1]; 0.8 mg/kg, subcutaneous): 7/10
Trypanocidal activity, cures (Trypanosoma rhodesiense [1]; 3.3 mg/kg, subcutaneous): 5/5
Trypanocidal activity, cures (Trypanosoma rhodesiense [1]; 13 mg/kg, subcutaneous): 5/5

C[n+]1c(C=Cc2ccc(C=NNC3=NCCCN3)cc2)cn2ccccc21 [BL11202]
Trypanocidal activity, cures (Trypanosoma rhodesiense [1]; 0.4 mg/kg, subcutaneous): 5/5
Increase in survival (Trypanosoma rhodesiense [1]; 1.6 mg/kg, subcutaneous): 6.8 days
Trypanocidal activity, cures (Trypanosoma rhodesiense [1]; 1.6 mg/kg, subcutaneous): 9/10
Trypanocidal activity, cures (Trypanosoma rhodesiense [1]; 6.6 mg/kg, subcutaneous): 5/5
Trypanocidal activity, cures (Trypanosoma rhodesiense [1]; 26 mg/kg, subcutaneous): 15/15

C[n+]1ccc(COc2ccc(C=NNC3=NCCN3)cc2)cc1 [BL12129]
Increase in survival (Trypanosoma rhodesiense [1]; 3.3 mg/kg, subcutaneous): 6.8 days
Trypanocidal activity, cures (Trypanosoma rhodesiense [1]; 3.3 mg/kg, subcutaneous): 1/5
Increase in survival (Trypanosoma rhodesiense [1]; 13 mg/kg, subcutaneous): 5.0 days
Trypanocidal activity, cures (Trypanosoma rhodesiense [1]; 13 mg/kg, subcutaneous): 8/10

C[n+]1c(C=Cc2ccc(C=NNC(=N)N3CCCC3)cc2)cn2ccccc21 [BL12165]
Increase in survival (Trypanosoma rhodesiense [1]; 1.6 mg/kg, subcutaneous): 5.2 days
Trypanocidal activity, cures (Trypanosoma rhodesiense [1]; 1.6 mg/kg, subcutaneous): 6/10
Increase in survival (Trypanosoma rhodesiense [1]; 3.3 mg/kg, subcutaneous): 12.3 days
Trypanocidal activity, cures (Trypanosoma rhodesiense [1]; 3.3 mg/kg, subcutaneous): 2/5
Trypanocidal activity, cures (Trypanosoma rhodesiense [1]; 13 mg/kg, subcutaneous): 10/10
Trypanocidal activity, cures (Trypanosoma rhodesiense [1]; 26 mg/kg, subcutaneous): 15/15

Cn1cc[n+](C)c1C=Cc1ccc(C=NNC2=NCCCN2)cc1 [BL21584]
Trypanocidal activity, cures (Trypanosoma rhodesiense [1]; 6.6 mg/kg, subcutaneous): 5/5
Trypanocidal activity, cures (Trypanosoma rhodesiense [1]; 13 mg/kg, subcutaneous): 10/10

CCN=C(NCC)NN=Cc1ccc(OCc2n(C)cc[n+]2C)cc1 [BL28038]
Trypanocidal activity, cures (Trypanosoma rhodesiense [1]; 13 mg/kg, subcutaneous): 3/5

N=C(N)c1ccc(-c2cc3ccc(C(=N)N)cc3[nH]2)cc1 [DAPI, 2-phenylindole-5-4'-bis-carboxamidine]
Trypanocidal activity (Trypanosoma rhodesiense [2]): show trypanocidal activity

N=C(N)c1cccc(NC(=O)Nc2cccc(C(=N)N)c2)c1 [aminocarbilide]
Trypanocidal activity (Trypanosoma rhodesiense [2]): show trypanocidal activity

N=C(N)c1ccc(N=NNc2ccc(C(=N)N)cc2)cc1 [berenil]
Trypanocidal activity (Trypanosoma rhodesiense [2]): show trypanocidal activity

CC(=NNC(=N)N)c1cccc(C(C)=NNC(=N)N)c1 [m-diacetylbenzene-bis-guanylhydrazone]
Trypanocidal activity (Trypanosoma rhodesiense [2]): show trypanocidal activity

N=C(N)c1ccc(OCCCCCOc2ccc(C(=N)N)cc2)cc1 [pentamidine]
Trypanocidal activity (Trypanosoma rhodesiense [2]): show trypanocidal activity
